Test results: patent US11214803B2, “Modulators of YAP1 expression” (Ionis Pharmaceuticals, Inc., priority 2019, dated 2022)

Columns and labels:
[1] = Cynomolgus monkey tolerability, urine analysis (Example 34); details: cynomolgus monkeys, 35 mg/kg subcutaneously, day 44
Procedure: (§1) Prior to the study, the monkeys were kept in quarantine during which the animals were observed daily for general health. The monkeys were 2-4 years old and weighed 2-4 kg. Eleven groups of 4 randomly assigned male cynomolgus monkeys each were injected subcutaneously with Ionis oligonucleotide or saline in a clock-wise rotation between four different sites on the back. Following loading doses on days 1, 3, 5 and 7, the monkeys were dosed once per week (on days 14, 21, 28, 35, and 42) with 35 mg/kg of Ionis oligonucleotide.
Food was removed overnight the day before fresh urine collection, but water was supplied. Fresh urine samples for urinalysis and urine chemistry were collected from all animals using a clean cage pan on wet ice (first in the morning) on day 44. Urinalysis/Urine Chemistry parameters creatinine (UCRE), microprotein (UTP), urine microalbumin (UALB), and protein/creatinine (P/C) ratio were measured using a Toshiba 120FR automated chemistry analyzer (Toshiba Co., Japan).

[2] = system: Yap1 mRNA; assay: Yap1 mRNA in SCC25 cells, RNA analysis (Example 25); assay type: cell-based, human; details: free uptake, 48 hours, RTS4814, normalized to actin-beta
In short: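 SCC25 squamous carcinoma cells at 5,000 cells/well dosed by free uptake with oligonucleotides at graded concentrations; non-complementary 3-10-3 cET gapmer as control. After ~48 h, Yap1 mRNA measured by RT-qPCR (RTS4814), normalized to actin-beta (RTS5002). Values are % of untreated control (% UTC).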

[3] = system: Yap1 mRNA; assay: Dose-dependent inhibition of human Yap1 in A-431 cells (Example 24, 11,000 cells per well, RTS36584, normalized to GAPDH); assay type: cell-based; details: free uptake, 48 hours; for Yap1 mRNA, % UTC: RTS36584, normalized to GAPDH; for IC50: linear regression on a log/linear plot
In short: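 Free uptake of modified oligonucleotides at several concentrations into A-431 cells for ~48 h. Yap1 mRNA by RT-PCR, normalized to GAPDH, expressed as % of untreated control; IC50 from linear regression of log/linear plot.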

[4] = Cynomolgus monkey tolerability, coagulation (Example 34); assay type: in vivo; details: cynomolgus monkeys, 35 mg/kg subcutaneously, day 44
Procedure: To evaluate effect of Ionis modified oligonucleotides on coagulation in cynomolgus monkeys, blood samples of approximately 0.9 mL were collected from each of the available study animals on day 44. The samples were collected in tubes containing 3.2% sodium citrate. Coagulation parameters tested include Activated partial thromboplastin time (APTT), prothrombin time (PT) and Figrinogen (FIB).

[5] = Cynomolgus monkey tolerability, kidney and liver function markers (Example 34); details: cynomolgus monkeys, 35 mg/kg subcutaneously, day 44
Procedure: as §1
To evaluate the effect of Ionis oligonucleotides on hepatic and kidney function, blood samples were collected from all the study groups on day 44. The monkeys were fasted overnight prior to blood collection. Blood was collected in tubes without anticoagulant for serum separation. The tubes were kept at room temperature for a minimum of 90 minutes and then centrifuged at 3000 rpm for 10 minutes to obtain serum. Levels of various liver function markers were measured using a Toshiba 200FR NEO chemistry analyzer (Toshiba Co., Japan).

[6] = Cynomolgus monkey tolerability, body and organ weight measurements (Example 34); assay type: in vivo; details: cynomolgus monkeys, 35 mg/kg subcutaneously; for Heart weight / Kidney weight / Liver with gallbladder weight / Spleen weight: necropsy; for Terminal Body Weight: prior to necropsy
In short: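 Monkeys given modified oligonucleotides, observed twice daily, and euthanized on day 86, about 48 h after the last dose. Terminal body weight taken before necropsy; organ weights measured.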

[7] = Cynomolgus monkey tolerability, pro-inflammatory proteins analysis, Complement C3 and CRP (Example 34); assay type: in vivo; details: cynomolgus monkeys, 35 mg/kg subcutaneously; for CRP: day 44
In short: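 Inflammatory effects of oligonucleotides in cynomolgus monkeys were assessed using blood samples taken after an overnight fast. About 0.8 mL of blood per animal went into tubes without anticoagulant so serum could be separated. Complement C3 was measured on a Toshiba 120 FR NEO chemistry analyzer. C-Reactive Protein was measured alongside the liver-function clinical chemistry parameters.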

[8] = system: Yap1 mRNA; assay: Inhibition of human Yap1 mRNA in SNU449 hepatocellular carcinoma xenograft tumors (Example 26); assay type: in vivo; details: SNU449 xenografts in NSG mice, 50 mg/kg twice weekly for five days, relative to PBS treated animals
In short: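 Female NSG mice bearing subcutaneous SNU449 xenografts (about 100 mm^3) dosed with modified oligonucleotides at 50 mg/kg twice weekly for five days, four per group. Tumour Yap1 mRNA measured by RT-qPCR, normalized to actin-beta, expressed as % of PBS-treated controls.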

Substance	UALB [1]	UCRE [1]	UTP [1]	Yap1 mRNA, % UTC ([2]; 0.04 μM)	Yap1 mRNA, % UTC ([2]; 0.2 μM)	Yap1 mRNA, % UTC ([2]; 1 μM)	Yap1 mRNA, % UTC ([2]; 5 μM)	Yap1 mRNA, % UTC ([3]; 0.002 μM)	Yap1 mRNA, % UTC ([3]; 0.008 μM)	Yap1 mRNA, % UTC ([3]; 0.04 μM)	Yap1 mRNA, % UTC ([3]; 0.2 μM)	Yap1 mRNA, % UTC ([3]; 1 μM)	APTT [4]	FIB [4]	PT [4]	ALB [5]	ALP [5]	ALT [5]	AST [5]	BUN [5]	other results
958499 (ATTAGAGTATGTGGCA; 3-10-3 cEt gapmer, further chemistry not given here) [compound 958499]	0.1 mg/dL	60 mg/dL	16 mg/dL	47 % UTC	22 % UTC	10 % UTC	4 % UTC	1 % UTC	3 % UTC	28 % UTC	91 % UTC	117 % UTC	18 s	275 mg/dL	9 s	4.0 g/dL	1449 IU/L	67 IU/L	73 IU/L	24 mg/dL	IC50 [3]: 30 nM; CREA [5]: 0.9 mg/dL; GGT [5]: 67 IU/L; GLO [5]: 3.2 g/dL; GLU [5]: 83 mg/dL; HDL [5]: 89 mg/dL; LDL [5]: 46 mg/dL; TBIL [5]: 0.2 mg/dL; TG [5]: 41 mg/dL; TP [5]: 7.2 g/dL; Heart weight [6]: 10 g; Kidney weight [6]: 15 g; Liver with gallbladder weight [6]: 68 g; Spleen weight [6]: 4 g; Terminal Body Weight [6]: 2894 g; Complement C3 ([7]; Day 42 (pre-dose)): 112 mg/dL; Complement C3 ([7]; day 42 (24 hr post-dose)): 89 mg/dL; CRP [7]: 9.9 mg/L; Yap1 mRNA in tumors, % control [8]: 54 % control
1198872 (TGTATGTCAGAAGAGT; chemically modified gapmer, further chemistry not given here) [compound 1198872]	0.3 mg/dL	111 mg/dL	14 mg/dL	54 % UTC	22 % UTC	9 % UTC	7 % UTC	1 % UTC	3 % UTC	19 % UTC	70 % UTC	94 % UTC	21 s	206 mg/dL	10 s	4.0 g/dL	1098 IU/L	48 IU/L	94 IU/L	27 mg/dL	CREA [5]: 0.9 mg/dL; GGT [5]: 79 IU/L; GLO [5]: 3.1 g/dL; GLU [5]: 80 mg/dL; HDL [5]: 114 mg/dL; LDL [5]: 60 mg/dL; TBIL [5]: 0.3 mg/dL; TG [5]: 19 mg/dL; TP [5]: 7.1 g/dL; Heart weight [6]: 12 g; Kidney weight [6]: 15 g; Liver with gallbladder weight [6]: 63 g; Spleen weight [6]: 4 g; Terminal Body Weight [6]: 3126 g; Complement C3 ([7]; Day 42 (pre-dose)): 103 mg/dL; Complement C3 ([7]; day 42 (24 hr post-dose)): 96 mg/dL; CRP [7]: 1.1 mg/L; Yap1 mRNA in tumors, % control [8]: 52 % control
1197270 (TTAAAGTGTATGTCAG; cEt gapmer with 2'-OMe nucleoside, phosphorothioate, further chemistry not given here) [compound 1197270]	1.3 mg/dL	56 mg/dL	18 mg/dL	48 % UTC	24 % UTC	12 % UTC	7 % UTC	0 % UTC	2 % UTC	26 % UTC	80 % UTC	99 % UTC	17 s	257 mg/dL	10 s	3.7 g/dL	1215 IU/L	84 IU/L	78 IU/L	27 mg/dL	IC50 [3]: 20 nM; CREA [5]: 0.9 mg/dL; GGT [5]: 75 IU/L; GLO [5]: 3.1 g/dL; GLU [5]: 115 mg/dL; HDL [5]: 102 mg/dL; LDL [5]: 48 mg/dL; TBIL [5]: 0.2 mg/dL; TG [5]: 31 mg/dL; TP [5]: 6.8 g/dL; Heart weight [6]: 10 g; Kidney weight [6]: 17 g; Liver with gallbladder weight [6]: 73 g; Spleen weight [6]: 4 g; Terminal Body Weight [6]: 2852 g; Complement C3 ([7]; Day 42 (pre-dose)): 103 mg/dL; Complement C3 ([7]; day 42 (24 hr post-dose)): 86 mg/dL; CRP [7]: 9.8 mg/L; Yap1 mRNA in tumors, % control [8]: 54 % control
